# Test results: ChEMBL document CHEMBL6121054, “Discovery of Metabolic Reprogramming 2-Quinolones as Effective Antimicrobials for MRSA-Infected Wound Therapy” (J Med Chem, 2025)
# Assays:
# Format in all cases: functional
# Listeria monocytogenes [1] = assay: Antibacterial activity against Listeria monocytogenes EGD incubated for 16 to 24 hrs by broth microdilution method; conditions: time 16-24 hrs
# Listeria monocytogenes [2] = assay: Antibacterial activity against Listeria monocytogenes ATCC 19115 incubated for 16 to 24 hrs by broth microdilution method; conditions: time 16-24 hrs
# Staphylococcus aureus [3] = assay: Antibacterial activity against Staphylococcus aureus USA300 incubated for 16 to 24 hrs by broth microdilution method; conditions: time 16-24 hrs
# Staphylococcus aureus [4] = assay: Antibacterial activity against Staphylococcus aureus ATCC 25904 incubated for 16 to 24 hrs by broth microdilution method; conditions: time 16-24 hrs
# Staphylococcus aureus [5] = assay: Antibacterial activity against Staphylococcus aureus NCTC 8325-4 incubated for 16 to 24 hrs by broth microdilution method; conditions: time 16-24 hrs
# Staphylococcus aureus [6] = assay: Antibacterial activity against Staphylococcus aureus DU1090 incubated for 16 to 24 hrs by broth microdilution method; conditions: time 16-24 hrs
# Staphylococcus aureus [7] = assay: Antibacterial activity against Staphylococcus aureus USA400 incubated for 16 to 24 hrs by broth microdilution method; conditions: time 16-24 hrs
# Staphylococcus aureus [8] = assay: Antibacterial activity against Staphylococcus aureus ATCC 29213 incubated for 16 to 24 hrs by broth microdilution method; conditions: time 16-24 hrs
# Staphylococcus aureus [9] = assay: Antibacterial activity against Staphylococcus aureus ATCC 25923 incubated for 16 to 24 hrs by broth microdilution method; conditions: time 16-24 hrs
# Streptococcus suis = assay: Antibacterial activity against Streptococcus suis ZY05719 incubated for 16 to 24 hrs by broth microdilution method; conditions: time 16-24 hrs
# Staphylococcus aureus [10] = assay: Antibacterial activity against methicillin-resistant Staphylococcus aureus MRSA 1 incubated for 16 to 24 hrs by broth microdilution method
# Staphylococcus aureus [11] = assay: Antibacterial activity against methicillin-resistant Staphylococcus aureus MRSA 2 incubated for 16 to 24 hrs by broth microdilution method; conditions: time 16-24 hrs
# Staphylococcus aureus [12] = assay: Induction of resistance development in Staphylococcus aureus USA300 assessed as fold increase in MIC incubated for 24 hrs measured after 14 passages by broth microdilution method
# [13] = Staphylococcus aureus, MRSA 1, time 16-24 hrs, read-out: MIC
SMILES,MIC (Listeria monocytogenes [1]),MIC (Listeria monocytogenes [2]),MIC (Staphylococcus aureus [3]),MIC (Staphylococcus aureus [4]),MIC (Staphylococcus aureus [5]),MIC (Staphylococcus aureus [6]),MIC (Staphylococcus aureus [7]),MIC (Staphylococcus aureus [8]),MIC (Staphylococcus aureus [9]),MIC (Streptococcus suis),MIC (Staphylococcus aureus [10]; [13]),MIC (Staphylococcus aureus [10]; time 16-24 hrs),MIC (Staphylococcus aureus [11]),fold change (FC) (Staphylococcus aureus [12])
CCn1c(=O)c(C(=O)Nc2nnc(-c3ccc(Br)cn3)s2)c(O)c2ccccc21,0.06 µg/mL,0.05 µg/mL,0.06 µg/mL,0.19 µg/mL,0.27 µg/mL,0.05 µg/mL,0.07 µg/mL,1.13 µg/mL,0.2 µg/mL,–,–,–,–,–
CCn1c(=O)c(C(=O)Nc2nnc(-c3ccc(C(F)(F)F)cn3)s2)c(O)c2ccccc21,0.21 µg/mL,0.29 µg/mL,4.67 µg/mL,3.42 µg/mL,> 8 µg/mL,0.96 µg/mL,6.67 µg/mL,> 8 µg/mL,5.33 µg/mL,–,–,–,–,–
CNC(C)[C@@H]1CC[C@@H](N)[C@@H](O[C@H]2[C@H](O)[C@@H](O[C@H]3OC[C@](C)(O)[C@H](NC)[C@H]3O)[C@H](N)C[C@@H]2N)O1.CN[C@@H]1[C@@H](O)[C@@H](O[C@@H]2[C@@H](O)[C@H](O[C@H]3O[C@H](C(C)N)CC[C@H]3N)[C@@H](N)C[C@H]2N)OC[C@]1(C)O.CN[C@@H]1[C@@H](O)[C@@H](O[C@@H]2[C@@H](O)[C@H](O[C@H]3O[C@H](CN)CC[C@H]3N)[C@@H](N)C[C@H]2N)OC[C@]1(C)O (some centres not stated),–,6 µg/mL,4 µg/mL,> 4 µg/mL,5.33 µg/mL,1.54 µg/mL,3.67 µg/mL,3 µg/mL,2.67 µg/mL,6 µg/mL,> 4 µg/mL,5.33 µg/mL,> 4 µg/mL,–
CCn1c(=O)c(C(=O)Nc2nnc(-c3ncccc3C)s2)c(O)c2ccccc21,> 8 µg/mL,> 8 µg/mL,> 8 µg/mL,> 8 µg/mL,> 8 µg/mL,> 8 µg/mL,> 8 µg/mL,> 8 µg/mL,> 8 µg/mL,–,–,–,–,–
CCn1c(=O)c(C(=O)Nc2nnc(-c3ncccc3F)s2)c(O)c2ccccc21,0.17 µg/mL,0.2 µg/mL,0.11 µg/mL,0.08 µg/mL,0.1 µg/mL,0.1 µg/mL,0.17 µg/mL,0.14 µg/mL,0.15 µg/mL,–,–,–,–,–
CCn1c(=O)c(C(=O)Nc2nnc(-c3cccc(C)n3)s2)c(O)c2ccccc21,0.02 µg/mL,0.02 µg/mL,0.17 µg/mL,0.04 µg/mL,0.05 µg/mL,0.02 µg/mL,0.08 µg/mL,0.2 µg/mL,0.04 µg/mL,–,–,–,–,–
CCn1c(=O)c(C(=O)Nc2nnc(-c3cc(C)ccn3)s2)c(O)c2ccccc21,0.16 µg/mL,0.49 µg/mL,0.14 µg/mL,0.19 µg/mL,0.1 µg/mL,0.12 µg/mL,0.14 µg/mL,0.18 µg/mL,0.15 µg/mL,–,–,–,–,–
CCn1c(=O)c(C(=O)Nc2nnc(-c3ccc(F)cn3)s2)c(O)c2ccccc21,0.49 µg/mL,0.5 µg/mL,0.46 µg/mL,0.48 µg/mL,1.25 µg/mL,0.5 µg/mL,1.29 µg/mL,0.67 µg/mL,0.46 µg/mL,–,–,–,–,–
CC1(C)S[C@H]([C@H](NC(=O)Cc2ccccc2)C(=O)NCc2ccccc2)N[C@H]1C(=O)N[C@H](Cc1ccccc1)[C@H](O)CC(=O)NCc1nc2ccccc2[nH]1,0.63 µg/mL,0.63 µg/mL,0.63 µg/mL,0.63 µg/mL,0.63 µg/mL,0.63 µg/mL,0.63 µg/mL,0.63 µg/mL,0.63 µg/mL,–,–,–,–,–
CN(C)c1cc(NC(=O)CNC(C)(C)C)c(O)c2c1C[C@H]1C[C@H]3[C@H](N(C)C)C(O)=C(C(N)=O)C(=O)[C@@]3(O)C(O)=C1C2=O [TIGECYCLINE],–,0.2 µg/mL,0.16 µg/mL,0.83 µg/mL,0.27 µg/mL,0.23 µg/mL,0.19 µg/mL,0.1 µg/mL,0.92 µg/mL,0.07 µg/mL,–,–,0.54 µg/mL,–
CN[C@H](CC(C)C)C(=O)N[C@H]1C(=O)N[C@@H](CC(N)=O)C(=O)N[C@H]2C(=O)N[C@H]3C(=O)N[C@H](C(=O)N[C@H](C(=O)O)c4cc(O)cc(O)c4-c4cc3ccc4O)[C@H](O)c3ccc(c(Cl)c3)Oc3cc2cc(c3O[C@@H]2O[C@H](CO)[C@@H](O)[C@H](O)[C@H]2O[C@H]2C[C@](C)(N)[C@H](O)[C@H](C)O2)Oc2ccc(cc2Cl)[C@H]1O [VANCOMYCIN],–,1.83 µg/mL,2.33 µg/mL,3 µg/mL,1.83 µg/mL,1.67 µg/mL,2.5 µg/mL,1.71 µg/mL,2.67 µg/mL,0.15 µg/mL,2.33 µg/mL,1.33 µg/mL,1.33 µg/mL,16
